Measured values reported in patent publication US20100278932A1, “POLYMER MICELLES CONTAINING SN-38 FOR THE TREATMENT OF CANCER” (Intezyne Technologies, Incorporated, priority 2009, published 2010).
Structures can show the parent of a compound that is named as a salt.

Columns and labels:
[1] = Pharmacokinetics in cannulated rats; format: in vivo; settings: 5 mg/kg (SN-38 equivalent mass) fast IV bolus, SN-38 in plasma, IT-141 of Example 40
Procedure: Pharmacokinetic data was generated from cannulated rats. […] Each group consisted of three rats.
150 μL of the supernatant was transferred to a HPLC vial for analysis. […] 150 μL of extraction solution was then added and vortexed for an additional 10 minutes. […] 150 μL of the supernatant was transferred to a HPLC vial for analysis. […] The mobile phase was 70% buffer and 30% acetonitrile (buffer=10 mM sodium phosphate with 0.1% triethyl amine adjusted to pH 3.5) flowing at 0.8 mL/min with an 18 minute run time. A calibration curve was constructed from the area under the curve of each of the seven standards and the SN-38 of each of the unknown samples determined from the curve.

[2] = cited from earlier work

| Compound | AUC [1] [hours*μg SN-38/mL] | solubility in aqueous solutions [2] |
| --- | --- | --- |
| CCc1c2c(nc3ccc(OC(=O)N4CCC(N5CCCCC5)CC4)cc13)-c1cc3c(c(=O)n1C2)COC(=O)[C@]3(O)CC [CPT-11, irinotecan hydrochloride] | 0.26 |  |
| CCc1c2c(nc3ccc(O)cc13)-c1cc3c(c(=O)n1C2)COC(=O)[C@]3(O)CC [SN-38, 7-ethyl-10-hydroxycamptothecin] |  | exceedingly insoluble |
